The text below walks through data of US9493436B2, “Tyrosine phosphatase inhibitors and uses thereof to modulate the activity of enzymes involved in the pathology of Mycobacterium tuberculosis” (priority 2011, dated 2016).

Where “and” joins values, the source holds several entries; their conditions need not be identical. Identical values can stand only once. Entries after “also recorded” stand apart in the source; their conditions may differ.

Usually IC50 stands for the concentration that gives 50% inhibition. What is called Ki is the equilibrium dissociation constant of an inhibitor or competing ligand from its target.

One assay concerns the target T1, TC-PTP (Homo sapiens, UniProt P17706).
T1 sequence (P17706 1-415): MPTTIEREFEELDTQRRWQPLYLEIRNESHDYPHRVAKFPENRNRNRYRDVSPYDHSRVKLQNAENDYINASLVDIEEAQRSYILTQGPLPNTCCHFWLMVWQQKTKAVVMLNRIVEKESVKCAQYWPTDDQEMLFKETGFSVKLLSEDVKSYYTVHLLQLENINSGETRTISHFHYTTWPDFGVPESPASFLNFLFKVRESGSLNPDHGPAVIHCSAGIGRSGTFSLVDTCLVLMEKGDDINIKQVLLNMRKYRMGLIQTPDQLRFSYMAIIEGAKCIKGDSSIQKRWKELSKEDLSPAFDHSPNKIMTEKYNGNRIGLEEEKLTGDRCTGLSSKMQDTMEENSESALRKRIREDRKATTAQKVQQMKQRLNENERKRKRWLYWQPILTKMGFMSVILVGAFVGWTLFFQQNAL
The assay can be described thus: PTP selectivity panel: TC-PTP. The format is biochemical. To be noted: read-out: IC50 (μM) TC-PTP.

The target of another assay is Laforin (Homo sapiens, UniProt O95278). The format is biochemical.
Assay [1] has as its system ERK1/2 phosphorylation in Raw264.7 cells expressing mPTPB. Put plainly: ERK phosphorylation in macrophage cells expressing mPTPB (western blot). The class given is cell-based, mouse. To be noted: IFN-γ, L01Z08 especially at 120 and 240 nM. Here is the method:
As explained above, ERK phosphorylation is important in the cellular secretion pathway of IL-6. However, mPTPB blocks or inhibits the phosphorylation of ERK which reduces and potentially prevents IL-6 secretion altogether.
Raw264.7 mouse macrophages were cultured in Dulbecco's modified Eagle's medium (DMEM) supplemented with 10% FBS (Invitrogen), penicillin (50 units/mL), and streptomycin (50 μg/mL) under a humidified atmosphere containing 5% CO2 at 37° C. Transfected Raw264.7 cells (Vector, WT-mPTPB) were seeded in a 12-well plate at a density of 4×10^4 cells/well. The following day cells were treated with mPTPB inhibitor 213a for 1 hr, then stimulated with IFN-γ (200 U/ml) for 1 h. […]. Wash with ice-cold phosphate buffered saline, and lysed with lysis buffer on ice for 30 min. Cell lysate is then cleared by centrifuging at 13,000 rpm for 15 min. The phosphorylation of ERK1/2 and Akt was detected by western blotting.
A general note: A western blot detects proteins with antibodies after separation by electrophoresis.

Assay [2] relates to Caspase 3 activity in macrophage cells expressing mPTPB. The format is cell-based. To be noted: especially at 120 and 240 nM.
The next assay deals with VHR (Homo sapiens, UniProt P51452). The following applies: read-out: IC50 (μM) VHR.
For the next assay, the target named is T2, mPTPB (Mycobacterium tuberculosis, UniProt I6WXK4).
T2 construct: The full-length mPTPB with a N-terminal His6-tag was expressed and purified; His6 (N); made in house; host or cells: E. coli BL21/DE3 (pET28b-mPTPB)
T2 sequence (I6WXK4 1-276): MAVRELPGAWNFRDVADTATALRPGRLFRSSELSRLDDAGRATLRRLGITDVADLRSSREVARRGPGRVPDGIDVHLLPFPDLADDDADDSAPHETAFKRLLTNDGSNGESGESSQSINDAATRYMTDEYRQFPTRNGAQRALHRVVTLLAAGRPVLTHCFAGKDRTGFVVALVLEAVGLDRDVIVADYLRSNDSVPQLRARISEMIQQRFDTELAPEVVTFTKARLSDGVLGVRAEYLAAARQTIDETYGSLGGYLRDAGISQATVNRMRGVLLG
Put plainly: biochemical. The format is biochemical.

A further assay concerns the target T3, Lyp (Homo sapiens, UniProt Q9Y2R2).
T3 sequence (Q9Y2R2 1-807): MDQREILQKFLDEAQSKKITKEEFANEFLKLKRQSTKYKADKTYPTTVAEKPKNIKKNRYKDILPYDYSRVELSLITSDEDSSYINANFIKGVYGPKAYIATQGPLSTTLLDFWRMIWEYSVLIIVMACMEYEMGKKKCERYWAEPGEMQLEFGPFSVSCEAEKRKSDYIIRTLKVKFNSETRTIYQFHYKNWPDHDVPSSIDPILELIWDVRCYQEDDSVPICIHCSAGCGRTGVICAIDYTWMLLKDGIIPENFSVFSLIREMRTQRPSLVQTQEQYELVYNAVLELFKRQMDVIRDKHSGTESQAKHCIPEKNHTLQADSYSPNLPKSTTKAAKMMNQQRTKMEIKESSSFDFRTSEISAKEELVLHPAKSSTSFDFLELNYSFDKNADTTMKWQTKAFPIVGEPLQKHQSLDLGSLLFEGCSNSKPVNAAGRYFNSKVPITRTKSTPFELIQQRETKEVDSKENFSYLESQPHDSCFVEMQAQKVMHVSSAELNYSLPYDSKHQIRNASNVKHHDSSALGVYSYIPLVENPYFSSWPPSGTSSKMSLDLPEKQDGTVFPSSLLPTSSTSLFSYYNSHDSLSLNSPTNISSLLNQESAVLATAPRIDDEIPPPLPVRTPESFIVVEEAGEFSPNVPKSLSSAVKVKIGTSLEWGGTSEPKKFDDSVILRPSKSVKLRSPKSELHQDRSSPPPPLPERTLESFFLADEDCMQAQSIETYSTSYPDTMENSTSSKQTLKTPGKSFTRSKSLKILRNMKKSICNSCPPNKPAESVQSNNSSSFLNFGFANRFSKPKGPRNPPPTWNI
Put plainly: biochemical. The format is biochemical.

Another assay has as its target YopH (UniProt P15273). The format is biochemical. The following applies: read-out: IC50 (μM) YopH.

Sequence of YopH (P15273 whole entry, looked up): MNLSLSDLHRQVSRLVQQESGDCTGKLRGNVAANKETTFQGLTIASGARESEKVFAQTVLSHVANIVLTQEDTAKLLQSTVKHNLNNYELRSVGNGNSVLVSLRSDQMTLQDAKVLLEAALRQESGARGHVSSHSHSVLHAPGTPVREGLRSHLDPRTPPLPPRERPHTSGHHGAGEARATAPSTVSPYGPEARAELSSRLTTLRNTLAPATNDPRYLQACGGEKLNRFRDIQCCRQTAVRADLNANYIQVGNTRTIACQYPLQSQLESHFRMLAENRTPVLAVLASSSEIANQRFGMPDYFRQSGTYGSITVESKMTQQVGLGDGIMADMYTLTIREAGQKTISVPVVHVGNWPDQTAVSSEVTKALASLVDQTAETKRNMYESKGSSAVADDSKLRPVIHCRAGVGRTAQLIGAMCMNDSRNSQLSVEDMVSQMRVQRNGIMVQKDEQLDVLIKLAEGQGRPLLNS
Sequence of VHR (P51452 whole entry, species assumed): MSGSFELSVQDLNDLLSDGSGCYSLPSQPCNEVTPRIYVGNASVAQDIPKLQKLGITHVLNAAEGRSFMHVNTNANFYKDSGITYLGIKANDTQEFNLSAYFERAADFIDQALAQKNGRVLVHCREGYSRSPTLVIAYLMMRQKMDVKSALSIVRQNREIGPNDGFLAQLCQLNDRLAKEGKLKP
Sequence of Laforin (O95278 whole entry, species assumed): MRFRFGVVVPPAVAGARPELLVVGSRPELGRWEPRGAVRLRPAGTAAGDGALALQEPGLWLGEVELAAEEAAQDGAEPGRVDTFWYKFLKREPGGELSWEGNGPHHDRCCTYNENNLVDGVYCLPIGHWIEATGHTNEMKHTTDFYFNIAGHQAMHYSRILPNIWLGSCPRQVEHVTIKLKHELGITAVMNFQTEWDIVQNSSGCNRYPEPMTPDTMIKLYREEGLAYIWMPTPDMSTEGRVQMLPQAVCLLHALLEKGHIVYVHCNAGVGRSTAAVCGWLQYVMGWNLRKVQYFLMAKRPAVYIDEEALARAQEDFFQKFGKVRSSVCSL

For the compound `O=C(O)c1cc2c(C#Cc3cccc(C(F)(F)F)c3)c(-c3ccccc3)oc2cc1O` [32 (L01Z08)], the values for the IC50 on TC-PTP, at Laforin and at VHR were 5.7 ± 0.4 µM, 40 ± 10 µM and 1.9 ± 0.4 µM, respectively. Moreover, in assay [1], the “ERK phosphorylation / ERK1/2 activity” value was “normal or near normal levels”. In addition, in assay [2], the “caspase 3 activity” value is on record as “returns caspase 3 activity to near normal levels”.
For `Cn1c(-c2ccccc2C(F)(F)F)c(I)c2cc(C(=O)O)c(O)cc21` [Compound 207a, 6-hydroxy-3-iodo-1-methyl-2-(2-(trifluoromethyl)phenyl)-1H-indole-5-carboxylic acid], at mPTPB (kinetic analyses, Lineweaver-Burk plot), the “mode of mPTPB inhibition” value was “Non-competitive inhibition; also recorded: reversible and noncompetitive inhibitor”. The inhibition constant Ki at mPTPB (pH 7.0, 25° C.) is 1.21 ± 0.04 µM. For the same compound, the IC50 at mPTPB (pNPP substrate, pH 7.0, 25° C., read-out: IC50 (μM) against mPTPB) was 1.2 µM and 1.18 µM; on Lyp, 75 ± 4 µM; on YopH, 220 ± 20 µM. Also, the “selectivity for mPTPB over the other ten PTPs” value on mPTPB (panel of 11 PTPs) was 47 fold.
